In patent US20220142959A1, “LEUCINE, ACETYL LEUCINE, AND RELATED ANALOGS FOR TREATING DISEASE” (priority 2019, published 2022):

What was measured:
[1] = system: LC3-II and APP-CTFs; test: EAL flux in NPC1 mice (cerebellum LC3-II and APP-CTFs); type: in vivo, mouse; settings: treated 3 weeks; for restoring autophagic flux with respect to reducing LC3-II levels: relative to untreated NPC1
Text: FIG. 14 is a histogram of the ratio of LC3-II expression to βIII-tubulin in the cerebellum of mouse NPC1 brains at 9-12 weeks of age treated with ADLL, ALL, ADL, DLL, LL, DL, LLE, and miglustat (miglu.) for 3 weeks relative to untreated NPC1 cerebellum (n=4, mean±S.E.M).
FIG. 15 is a histogram of the ratio of APP-CTFs: full-length APP expression in the cerebellum of mouse NPC1 brains at 9-12 weeks of age treated with ADLL, ALL, ADL, DLL, LL, DL, LLE, and miglustat (miglu.) for 3 weeks relative to untreated NPC1 cerebellum (n=4, mean±S.E.M).
FIG. 16 is a histogram of the ratio of APP-CTF-6: full-length APP expression in the cerebellum of mouse NPC1 brains at 9-12 weeks of age treated with ADLL, ALL, ADL, DLL, LL, DL, and LLE for 3 weeks relative to untreated NPC1 cerebellum.
FIG. 17 is a histogram of the ratio of APP-CTF-7: full-length APP expression in the cerebellum of mouse NPC1 brains at 9-12 weeks of age treated with ADLL, ALL, ADL, DLL, LL, DL, and LLE for 3 weeks relative to untreated NPC1 cerebellum (n=4, mean±S.E.M).
The efficacy of ADLL, ALL, ADL, DLL, LL, DL, and LLE in alleviating the impairment of EAL flux in NPC1 mice was investigated. […] Without wishing to be bound by any particular theory, it is possible that ADL and LLE reduced autophagic vacuole (AV) build-up by inhibiting autophagosome formation, possibly through the activation mTORC1. […] Also, acetyl L-leucine (ALL), acetyl D-leucine (ADL) and L-leucine (LL) reduced CTF-7 expression, indicating some improvement in lysosomal proteolysis (FIG. 17).

[2] = system: rat primary cortical neurons; test: U18666A-mediated impairment of lysosomal fusion in rat primary cortical neurons; type: cell-based; settings: for CTF-6 and -7 (endosomal-lysosomal fusion) / LC3-II levels: co-treated with U18666A (2 μg/mL) and compound 1 mM
Method: (§1) FIG. 18. is a histogram of the ratio of LC3-II normalised to βIII tubulin (expressed as a percentage of untreated (n=1)) in rat primary cortical neurons that were treated with U18666A (2 μg/ml, 24 hr) in the absence or presence of ADLL, ALL, ADL, DLL, LL, DL, and LLE (1 mM, 24 hr).
as §1, with “19” for “18.”, “is” for “is a”, “APP-CTFs-6 and -7” for “LC3-II”, “their respective CTFs in untreated cells” for “βIII tubulin”, “(n=1)” for “(n=1))”
The efficacy of ADLL, ALL, ADL, DLL, LL, DL, and LLE in alleviating the U18666A-mediated impairment of autophagosome-lysosome fusion and endosomal lysosomal fusion was investigated. In this cell-based assay of impaired EAL flux, the reappearance of basal levels of APP CTFs-6 and -7, provided an indication of improved endosomal-lysosomal fusion.
Neurons were co-treated with U18666A (2 μg/mL) along with ADLL, ALL, ADL, DLL, LL, DL, and LLE (1 mM, 24 h).

[3] = system: rat primary cortical neurons (NE and NG cultures); test: Truncated tau and neuronal markers in neuron-enriched and neuron-glia cultures; type: cell-based; settings: for tolerability (levels of synaptophysin and βIII-tubulin vs untreated control): NE and NG cultures, 1 mM, five days (DIV 9-14); for reduction of basal levels of truncated tau: NG cultures at DIV14, 1 mM, five days
Method: FIG. 20 is eight Western blots of tau (5E2), synaptophysin and βIII-tubulin in rat primary cortical neurons (neuron-enriched (NE) and neuron-glia (NG) cultures) in the absence and presence of ADLL, ALL, ADL, DLL, LL, DL, and LLE (1 mM, 5 days).
The efficacy of ADLL, ALL, ADL, DLL, LL, DL, and LLE in reducing truncated tau levels in neuron-glia (NG) cultures was investigated. The results of this study are provided in FIGS. 20-24 One aim of this study was to determine whether ADLL, ALL, ADL, DLL, LL, DL, and LLE conferred intrinsic neuroprotection by sustaining neuronal function under conditions of cellular overgrowth, or whether they acted indirectly through the non-autonomous modulation of glial cells. Irrespective of whether the compounds acted directly or indirectly on neurons, preventing the generation of truncated tau confers beneficial effects to neuronal integrity.
Cultures were treated for five days (DIV 9-14) with 1 mM of ADLL, ALL, ADL, DLL, LL, DL, or LLE, and were subsequently assessed for a number of neuron-specific markers that could provide a readout on neuronal health: βIII-tubulin, full-length tau, truncated tau (antibody 5E2) and synaptophysin. ADLL, ALL, ADL, DLL, LL, DL, and LLE were well-tolerated in NE and NG cultures, as evidenced by consistently equal levels of synaptophysin and βIII-tubulin detected across untreated (control) and drug-treated samples (FIGS. 20, 23, and 24). None of ADLL, ALL, ADL, DLL, LL, DL, and LLE reduced basal levels of truncated tau in NG cultures at DIV14 (FIG. 20 and FIG. 22).

[4] = system: traumatic brain injury patient; test: Case report: patient with traumatic brain injury given acetyl-DL-leucine; type: in vivo, human; settings: TBI patient
Method: A patient suffering from traumatic brain injury was administered acetyl-DL-leucine at a dose of 3 g per day for the first week, followed by a dose of 5 g per day.

[5] = system: cerebellar Purkinje cells; test: Purkinje cell survival in Npc1−/− mice; type: in vivo
Text: (§2) FIG. 46 is an image showing cerebellar Purkinje cell loss progressing from anterior to posterior lobes and microglial activation in untreated Npc1^−/− mice and Npc1^−/− mice treated with ADLL, ALL, and ADL. Cerebellums were stained with calbindin-b (Purkinje cells) or CD68 (activated microglia).
FIG. 47 is a scatter graph showing Purkinje cell survival at 59 days of age in untreated Npc1^−/− mice and Npc1^−/− mice treated with ADLL, ALL, and ADL.
(§3) The combination of increased survival of neurons and a less inflammatory environment in the brain could improve brain function, quality of life, and delay the progression of disease in human subjects.

[6] = system: CD68 positive activated microglia; test: CD68 positive activated microglia in cerebellum of Npc1−/− mice; type: in vivo; settings: 59 days of age, compared to Npc1−/− UT
Text: as §2
FIG. 48 is a scatter graph showing frequency of CD68 positive activated microglia at 59 days of age in untreated Npc1^−/− mice and Npc1^−/− mice treated with ADLL, ALL, and ADL. CD68 cell density was measured in the cerebellum. n=5 animals per group. Mean±SD, *** p<0.0009 (one-way ANOVA).
as §3

[7] = system: patients with cerebellar ataxia; settings: cited from earlier work
[8] = system: patients with Niemann-Pick Type C (NPC); settings: one-month study, 12 patients; cited from earlier work
[9] = system: patients with ataxia; settings: in responders; cited from earlier work
[10] = system: LC3-II; settings: WO 2018/029658; cited from earlier work
[11] = 59 days of age, relative to untreated Npc1−/− littermates

CC(C)C[C@H](N)C(=O)O [LL, L-leucine]
CTF-6 accumulation [1]: did reduce | CTF-7 expression / clearance [1]: reduced | CTF-6 and -7 (endosomal-lysosomal fusion) ([2]; 24 h): reappearance of basal amounts | tolerability (levels of synaptophysin and βIII-tubulin vs untreated control) [3]: well-tolerated | reduction of basal levels of truncated tau [3]: None

CC(=O)NC(CC(C)C)C(=O)O (racemic) [ADLL, acetyl-DL-leucine]
behaviour / level of activity after treatment ([4]; 3 g per day first week, then 5 g per day): more active behaviour | level of activity after medication was stopped ([4]; medication stopped): returned to its original level | reduction in APP-CTFs, particularly CTF-6 and -7 [1]: not accompanied by a concomitant reduction | restoring autophagic flux with respect to reducing LC3-II levels [1]: effective in restoring autophagic flux | CTF-6 and -7 (endosomal-lysosomal fusion) ([2]; 24 h): reappearance of basal amounts | LC3-II levels ([2]; 24 h): lower than the basal levels | tolerability (levels of synaptophysin and βIII-tubulin vs untreated control) [3]: well-tolerated | reduction of basal levels of truncated tau [3]: None | more Purkinje cells in lobule III [5, 11]: 402% | more Purkinje cells present in lobules I and II [5, 11]: 133% | impact on frequency of CD68 positive activated microglia [6]: did not have an impact | benefit, another case series (Pelz et al. 2015) ([7]; cerebellar patients): did not find benefit | cerebellar ataxia symptoms, case series (Strupp et al. 2013) ([7]; cerebellar patients): symptomatic improvement | temporal gait variability (quantitative gait analysis) ([7]; patients with cerebellar ataxia): improved | ataxia symptoms in NPC patients [8]: symptomatic improvement of ataxia | metabolism in the midbrain and lower brainstem (PET) [9]: increased metabolism | LC3-II in NPC1 mouse brain [10]: lowering of LC3-II

CCOC(=O)[C@@H](N)CC(C)C [LLE, L-leucine ethyl ester]
reduction in APP-CTFs, particularly CTF-6 and -7 [1]: not accompanied by a concomitant reduction | restoring autophagic flux with respect to reducing LC3-II levels [1]: effective in restoring autophagic flux | CTF-6 and -7 (endosomal-lysosomal fusion) ([2]; 24 h): reappearance of basal amounts | tolerability (levels of synaptophysin and βIII-tubulin vs untreated control) [3]: well-tolerated | reduction of basal levels of truncated tau [3]: None

CCN(CC)CCO[C@H]1CC[C@@]2(C)C(=CC[C@@H]3[C@@H]2CC[C@]2(C)C(=O)CC[C@@H]32)C1 [U18666A, reference compound]
CTFs-6 and 7 ([2]; U18666A alone 2 μg/mL, 24 hr, DIV14): complete absence | LC3-II accumulation ([2]; U18666A alone, 24 h): did not cause an increase

CC(C)CC(N)C(=O)O (racemic) [DLL, DL-leucine]
CTF-6 and -7 (endosomal-lysosomal fusion) ([2]; 24 h): reappearance of basal amounts | tolerability (levels of synaptophysin and βIII-tubulin vs untreated control) [3]: well-tolerated | reduction of basal levels of truncated tau [3]: None

CC(=O)N[C@H](CC(C)C)C(=O)O [ADL, acetyl-D-leucine]
CTF-7 expression / clearance [1]: reduced | CTF-6 and -7 (endosomal-lysosomal fusion) ([2]; 24 h): reappearance of basal amounts | LC3-II levels ([2]; 24 h): lower than the basal levels | tolerability (levels of synaptophysin and βIII-tubulin vs untreated control) [3]: well-tolerated | reduction of basal levels of truncated tau [3]: None | Purkinje cell survival in any cerebellar lobules ([5]; 59 days of age, compared to Npc1−/− UT): did not improve | long-term neuroprotective effects ([5]; Npc1−/− mice): did not mediate any | impact on frequency of CD68 positive activated microglia [6]: did not have an impact

CC(C)C[C@@H](N)C(=O)O [DL, D-leucine]
CTF-7 expression / clearance [1]: positive effects | CTF-6 and -7 (endosomal-lysosomal fusion) ([2]; 24 h): reappearance of basal amounts | tolerability (levels of synaptophysin and βIII-tubulin vs untreated control) [3]: well-tolerated | reduction of basal levels of truncated tau [3]: None
